Where “and” joins values, the source holds several entries; their conditions need not be identical. Equal values may be shown once. Toxic doses and inconclusive results are not listed.

The assay concerns BDF1 mice, P388 leukemia ip, median survival T/C. In words: NCI In Vivo Anticancer Drug Screen. Data for tumor model P388 Leukemia (intraperitoneal) in B6D2F1 (BDF1) mice. The conditions noted are these: endpoint: median survival time, higher = longer survival. Summed up:
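Antitumour effect was judged in vivo: survival in drug-treated mice, normalised to that of vehicle-dosed controls, gives the reported T/C.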

The mark [1] stands for this setting: dose: 25.0 mg/kg/injection, schedule: Q04DX003 (ip), vehicle: water.
The mark [2] stands for this setting: dose: 100.0 mg/kg/injection, schedule: Q04DX003 (ip), vehicle: Klucel (hydroxypropylcellulose) (HPC).
[3] abbreviates: dose: 200.0 mg/kg/injection, schedule: Q04DX003 (ip), vehicle: Klucel (hydroxypropylcellulose) (HPC).
Setting [4] is: dose: 400.0 mg/kg/injection, schedule: Q04DX003 (ip), vehicle: Klucel (hydroxypropylcellulose) (HPC).
The mark [5] stands for this setting: dose: 50.0 mg/kg/injection, schedule: Q01DX009 (ip), vehicle: saline.
[6] abbreviates: dose: 100.0 mg/kg/injection, schedule: Q04DX003 (ip), vehicle: saline.
Where [7] appears, read: dose: 200.0 mg/kg/injection, schedule: Q04DX003 (ip), vehicle: saline.
[8] abbreviates: dose: 50.0 mg/kg/injection, schedule: Q01DX009 (ip), vehicle: saline with Tween-80.
Setting [9] is: dose: 100.0 mg/kg/injection, schedule: Q01DX009 (ip), vehicle: saline with Tween-80.
Where [10] appears, read: dose: 200.0 mg/kg/injection, schedule: Q01DX009 (ip), vehicle: saline with Tween-80.
Setting [11] is: dose: 100.0 mg/kg/injection, schedule: Q04DX003 (ip), vehicle: saline with Tween-80.
Where [12] appears, read: dose: 200.0 mg/kg/injection, schedule: Q04DX003 (ip), vehicle: saline with Tween-80.

As to `COC(=O)C(CC(C)C)NC(=O)C(Cc1ccc(Oc2ccc([N+](=O)[O-])cc2[N+](=O)[O-])cc1)NC=O` (configuration not stated), the T/C is 95 % of control under setting [1]; 99 % of control (dose: 300.0 mg/kg/injection, schedule: Q04DX003 (ip), vehicle: water); 96 % of control and 98 % of control and 112 % of control (dose: 400.0 mg/kg/injection, schedule: Q04DX003 (ip), vehicle: water).
As for `CCSSC(=Nc1ccccc1)OCC(C)C`, the T/C (dose: 50.0 mg/kg/injection, schedule: Q01DX009 (ip), vehicle: other) was 119 % of control.
`O=C1/C(=C/c2ccccc2)CCCC1/C=C/c1ccccc1` (configuration not stated): the T/C is, setting by setting: under setting [2], 100 % of control; under setting [3], 104 % of control; under setting [4], 104 % of control.
With `O=S(=O)(OCCF)c1cc(Cl)c(Cl)cc1Cl`, the T/C (dose: 50.0 mg/kg/injection, schedule: Q01DX005 (ip), vehicle: Klucel (hydroxypropylcellulose) (HPC)) is 113 % of control.
As for `CN(C)N=Nc1ccccc1`, the T/C reads like this: (dose: 31.25 mg/kg/injection, schedule: Q01DX009 (ip), vehicle: Klucel (hydroxypropylcellulose) (HPC)) 103 % of control; (dose: 82.0 mg/kg/injection, schedule: Q04DX003 (ip), vehicle: Klucel (hydroxypropylcellulose) (HPC)) 110 % of control; (dose: 125.0 mg/kg/injection, schedule: Q04DX003 (ip), vehicle: saline) 90 % of control.
For the compound `O=C1NC(O)CCN1C1OC(CO)C(O)C1O` (configuration not stated), the T/C under setting [5] is 89 % of control; the T/C (dose: 100.0 mg/kg/injection, schedule: Q01DX009 (ip), vehicle: saline) was 100 % of control and 113 % of control; the T/C under setting [6] is 116 % of control; the T/C (dose: 200.0 mg/kg/injection, schedule: Q01DX009 (ip), vehicle: saline) was 101 % of control and 104 % of control; the T/C under setting [7] is 108 % of control; the T/C (dose: 400.0 mg/kg/injection, schedule: Q01DX009 (ip), vehicle: saline) is 100 % of control and 117 % of control. Also, the T/C (dose: 400.0 mg/kg/injection, schedule: Q04DX003 (ip), vehicle: saline) is 95 % of control.
With `CCOC(=O)CNC(=O)C(CSSCC(NC(=O)OCc1ccccc1)C(=O)NCC(=O)OCC)NC(=O)OCc1ccccc1` (configuration not stated), the T/C is 118 % of control under setting [2], 86 % of control under setting [3] and 109 % of control under setting [4].
As for `O=[N+]([O-])c1ccc(Cl)c(S(=O)O)c1`, the T/C is, setting by setting: (dose: 75.0 mg/kg/injection, schedule: Q04DX003 (ip), vehicle: saline) 95 % of control; (dose: 150.0 mg/kg/injection, schedule: Q04DX003 (ip), vehicle: saline) 100 % of control; (dose: 300.0 mg/kg/injection, schedule: Q04DX003 (ip), vehicle: saline) 95 % of control.
For the compound `CC1SCC(=O)N1c1nccs1` (configuration not stated), the T/C under setting [8] was 99 % of control, the T/C under setting [9] was 100 % of control and the T/C under setting [10] was 102 % of control.
For `C=CCCCCCCCCC(=O)NCCN1CCOCC1`, the T/C is, setting by setting: under setting [8], 104 % of control; under setting [9], 100 % of control.
Consider `CN(C)c1ccc(/C=C\c2ccnc3ccccc23)cc1`, for which the T/C is 100 % of control (dose: 1.5 mg/kg/injection, schedule: Q01DX010 (ip), vehicle: saline); 95 % of control (dose: 3.0 mg/kg/injection, schedule: Q01DX010 (ip), vehicle: saline); 100 % of control (dose: 6.0 mg/kg/injection, schedule: Q01DX010 (ip), vehicle: saline); 109 % of control (dose: 12.0 mg/kg/injection, schedule: Q01DX010 (ip), vehicle: saline).
As to `CCCCNC(C)(C)C(SSSC(C)=O)c1ccco1` (configuration not stated), the T/C is, setting by setting: (dose: 3.12 mg/kg/injection, schedule: Q01DX009 (ip), vehicle: saline with Tween-80) 88 % of control; (dose: 6.25 mg/kg/injection, schedule: Q01DX009 (ip), vehicle: saline with Tween-80) 111 % of control; (dose: 12.5 mg/kg/injection, schedule: Q01DX009 (ip), vehicle: saline with Tween-80) 102 % of control; (dose: 25.0 mg/kg/injection, schedule: Q01DX009 (ip), vehicle: saline with Tween-80) 101 % of control and 102 % of control; under setting [8], 103 % of control.
For `FC(F)(F)c1ccc2c(c1)N(CCCN1CCN(CCOCCCl)CC1)c1ccccc1S2`, the T/C (dose: 12.5 mg/kg/injection, schedule: Q04DX003 (ip), vehicle: saline) was 107 % of control.
As to `CCCSC(CC=O)CCC` (configuration not stated), the T/C is 106 % of control (dose: 100.0 mg/kg/injection, schedule: Q01DX001 (ip), vehicle: suspension in saline); 92 % of control (dose: 200.0 mg/kg/injection, schedule: Q01DX001 (ip), vehicle: suspension in saline); 88 % of control (dose: 400.0 mg/kg/injection, schedule: Q01DX001 (ip), vehicle: suspension in saline).
Consider `CC(=O)c1cccc(NC2C(N)C(NC(=O)N(C)C)(C(C)O)C(C)(O)C2(O)COC(=O)c2c(C)cccc2O)c1` (configuration not stated), for which the T/C runs as follows: (dose: 5.4 mg/kg/injection, schedule: Q04DX003 (ip), vehicle: alkali diluted with saline) 167 % of control; (dose: 6.5 mg/kg/injection, schedule: Q04DX003 (ip), vehicle: alkali diluted with saline) 163 % of control; (dose: 8.64 mg/kg/injection, schedule: Q04DX003 (ip), vehicle: alkali diluted with saline) 159 % of control; (dose: 9.0 mg/kg/injection, schedule: Q04DX003 (ip), vehicle: alkali diluted with saline) 170 % of control; (dose: 10.8 mg/kg/injection, schedule: Q04DX003 (ip), vehicle: alkali diluted with saline) 169 % of control.
Regarding `c1ccc2c(c1)Sc1ccccc1N2Cc1cnc[nH]1`, the T/C by setting is: (dose: 25.0 mg/kg/injection, schedule: Q04DX003 (ip), vehicle: saline with Tween-80) 100 % of control; (dose: 50.0 mg/kg/injection, schedule: Q04DX003 (ip), vehicle: saline with Tween-80) 104 % of control; under setting [11], 100 % of control; under setting [12], 109 % of control.
As to `CC1=C/C(O)CC(=O)Cc2nc(co2)C(=O)N2CCC=C2C(=O)OC(C(C)C)C(C)/C=C\C(=O)NC/C=C\1` (configuration not stated), the T/C reads like this: (dose: 100.0 mg/kg/injection, schedule: Q01DX009 (ip), vehicle: Klucel (hydroxypropylcellulose) (HPC)) 118 % of control; (dose: 0.5 micrograms/kg/injection, schedule: Q01DX009 (ip), vehicle: saline) 105 % of control; (dose: 1.0 micrograms/kg/injection, schedule: Q01DX009 (ip), vehicle: saline) 101 % of control; (dose: 2.0 micrograms/kg/injection, schedule: Q01DX009 (ip), vehicle: saline) 108 % of control; (dose: 4.0 micrograms/kg/injection, schedule: Q01DX009 (ip), vehicle: saline) 101 % of control.
Consider `ON=C(Cc1ccccc1)Cc1ccccc1`, for which the T/C is 100 % of control under setting [11]; 109 % of control under setting [12]; 109 % of control (dose: 400.0 mg/kg/injection, schedule: Q04DX003 (ip), vehicle: saline with Tween-80).
As to `CCN(C(=S)Nc1cccc(OC)c1)c1ccccc1`, the T/C is, setting by setting: under setting [8], 101 % of control; under setting [9], 99 % of control; under setting [10], 101 % of control.
For the compound `CC1CN1P1(N2CC2C)=NP(N2CC2C)(N2CC2C)=NP(N2CC2C)(N2CC2C)=N1` (configuration not stated), the T/C is 122 % of control (dose: 4.4 mg/kg/injection, schedule: Q01DX009 (ip), vehicle: saline); 124 % of control (dose: 6.6 mg/kg/injection, schedule: Q01DX009 (ip), vehicle: saline); 161 % of control (dose: 15.0 mg/kg/injection, schedule: Q01DX009 (ip), vehicle: saline); 155 % of control (dose: 16.5 mg/kg/injection, schedule: Q01DX009 (ip), vehicle: saline); 160 % of control and 164 % of control (dose: 25.0 mg/kg/injection, schedule: Q01DX009 (ip), vehicle: saline); 114 % of control (dose: 25.0 mg/kg/injection, schedule: Q04DX003 (ip), vehicle: saline). The T/C is 169 % of control (dose: 37.5 mg/kg/injection, schedule: Q01DX009 (ip), vehicle: saline); 203 % of control under setting [5]; 166 % of control and 214 % of control under setting [6]; 102 % of control under setting [7].
With `Cc1c[n+]([O-])ccc1Br`, the T/C reads like this: (dose: 6.25 mg/kg/injection, schedule: Q04DX003 (ip), vehicle: water) 100 % of control; (dose: 12.5 mg/kg/injection, schedule: Q04DX003 (ip), vehicle: water) 100 % of control; under setting [1], 112 % of control; (dose: 50.0 mg/kg/injection, schedule: Q04DX003 (ip), vehicle: water) 99 % of control; (dose: 100.0 mg/kg/injection, schedule: Q04DX003 (ip), vehicle: water) 100 % of control.

For the origin of these results see PubChem BioAssay AID328 (DTP/NCI, 2004).
